Measurements as given in US4132846A.
Converted amounts (≈) assume the structure as drawn. Like-named read-outs stand apart in the source and are kept apart here.

Legend:
[1] = tested on: Staphylococus aureus Smith; assay: MIC, agar dilution method at pH 7.2; assay type: cell-based
Source text: (§1) Anti-bacterial Spectrum (Minimum Inhibitory Concentration, mcg/ml)

[2] = tested on: Salmonella typhosa ATCC 9992; assay: MIC, agar dilution method at pH 8.0; assay type: cell-based; conditions: Salmonella enterica, pH 8, read-out: minimum Inhibitory Concentration
[3] = tested on: Shigella sonnei ATCC 9290; assay: microbe, parasite or virus in culture; assay type: cell-based; conditions: ATCC9290, agar dilution, pH 8.0, read-out: minimum Inhibitory Concentration
Escherichia coli KY 8348 [4] = assay: MIC, agar dilution method at pH 8.0; assay type: cell-based; conditions: KY8348, Escherichia coli KY 8348 (produces gentamicin acetyltransferase Type I), read-out: minimum Inhibitory Concentration
Source text: (§2) The former bacterium inactivates kanamycins and gentamicins by adenylation, and the latter inactivates gentamicins by acetylation.

Escherichia coli KY 8327 [5] = assay: MIC, agar dilution method at pH 8.0; assay type: cell-based; conditions: KY8327, Escherichia coli KY 8327 (produces gentamicin adenyltransferase), read-out: minimum Inhibitory Concentration
Source text: as §2

[6] = tested on: Pseudomonas aeruginosa KY 8511; assay: MIC, agar dilution method at pH 7.2; assay type: cell-based; conditions: KY8511, Pseudomonas aeruginosa KY 8511 (gentamicin acetyltransferase Type I and neomycin-kanamycin phosphotransferase Type I), read-out: Minimum Inhibitory Concentration
Source text: ^6 produces gentamicin acetyltransferase Type I and neomycin-kanamyci

Escherichia coli KY 8348 [7] = assay: MIC, agar dilution method at pH 7.2; assay type: cell-based; conditions: KY8348, Escherichia coli KY 8348 (gentamicin acetyltransferase Type I), read-out: Minimum Inhibitory Concentration
[8] = tested on: Pseudomonas aeruginosa BMH 1; assay: MIC, agar dilution method at pH 7.2; assay type: cell-based; conditions: BMH1, read-out: Minimum Inhibitory Concentration
Source text: as §1

[9] = tested on: Klebsiella pneumoniae No. 8045; assay: MIC, agar dilution method at pH 7.2; assay type: cell-based; conditions: read-out: Minimum Inhibitory Concentration
Source text: as §1

Proteus vulgaris 6897 = assay: MIC, agar dilution method at pH 7.2; assay type: cell-based
Source text: as §1

Proteus mirabilis 1287 = assay: MIC, agar dilution method at pH 7.2; assay type: cell-based; conditions: read-out: Minimum Inhibitory Concentration
Source text: as §1

[10] = tested on: Staphylococcus aureus 209 P; assay: MIC, agar dilution method at pH 7.2; assay type: cell-based; conditions: read-out: Minimum Inhibitory Concentration
Source text: as §1

[11] = tested on: Bacillus subtilis ATCC 6633; assay: MIC, agar dilution method at pH 7.2; assay type: cell-based; conditions: ATCC6633, read-out: Minimum Inhibitory Concentration
Source text: as §1

[12] = tested on: Bacillus subtilis No. 10707; assay: MIC, agar dilution method at pH 8.0; assay type: cell-based
Escherichia coli KY 8321 = assay: MIC, agar dilution method at pH 7.2; assay type: cell-based; conditions: KY8321, Escherichia coli KY 8321 (gentamicin adenyltransferase and neomycin-kanamycin phosphotransferase Type II), read-out: Minimum Inhibitory Concentration
Source text: ^2 produces gentamicin adenyltransferase and neomycin-kanamycin
phosphotransferase Type II

Escherichia coli KY 8327 [13] = assay: MIC, agar dilution method at pH 7.2; assay type: cell-based; conditions: KY8327, Escherichia coli KY 8327 (produces gentamicin adenyltransferase), read-out: Minimum Inhibitory Concentration
Source text: as §1
^1 produces gentamicin adenyltransferase

Providencia sp. 164 = assay: MIC, agar dilution method at pH 7.2; assay type: cell-based; conditions: Providencia sp. 164 (gentamicin acetyltransferase Type II), read-out: Minimum Inhibitory Concentration
[14] = tested on: Klebsiella pneumoniae ATCC 10031; assay: MIC, agar dilution method at pH 8.0; assay type: cell-based; conditions: ATCC10031, pH 8, read-out: minimum Inhibitory Concentration
[15] = tested on: Staphylococcus aureus ATC 6538P; assay: MIC, agar dilution method at pH 8.0; assay type: cell-based; conditions: ATC6538P
[16] = tested on: Pseudomonas aeruginosa KY 8512; assay: MIC, agar dilution method at pH 7.2; assay type: cell-based; conditions: KY8512, Pseudomonas aeruginosa KY 8512 (neomycin-kanamycin phosphotransferase Type I and II, streptomycin phosphotransferase), read-out: Minimum Inhibitory Concentration
Source text: as §1
^7 produces neomycin-kanamycin phosphotransferase Type I and Type II
and streptomycin phosphotransferase

[17] = tested on: Proteus vulgaris ATCC 6897; assay: microbe, parasite or virus in culture; assay type: cell-based; conditions: ATCC6897, pH 8, read-out: minimum Inhibitory Concentration
Escherichia coli ATC 26 = assay: MIC, agar dilution method at pH 8.0; assay type: cell-based; conditions: ATC26, read-out: minimum Inhibitory Concentration
[18] = tested on: Pseudomonas aeruginosa BMH 1; assay: MIC, agar dilution method at pH 8.0; assay type: cell-based; conditions: BMH1, read-out: minimum Inhibitory Concentration
Escherichia coli KY 8349 = assay: MIC, agar dilution method at pH 7.2; assay type: cell-based; conditions: KY8349, Escherichia coli KY 8349 (neomycin-kanamycin phosphototransferase Type I), read-out: Minimum Inhibitory Concentration
Source text: ^4 produces neomycin-kanamycin phosphototransferase Type I

[19] = tested on: Pseudomonas aeruginosa KY 8510; assay: MIC, agar dilution method at pH 7.2; assay type: cell-based; conditions: KY8510, Pseudomonas aeruginosa KY 8510 (kanamycin acetyltransferase), read-out: Minimum Inhibitory Concentration
[20] = in water and methanol; cited from earlier work
Escherichia coli T-2 = assay: MIC, agar dilution method at pH 7.2; assay type: cell-based; conditions: T2, read-out: Minimum Inhibitory Concentration
Source text: as §1

Proteus morganii KY 4298 = assay: MIC, agar dilution method at pH 7.2; assay type: cell-based; conditions: Morganella morganii, KY4298, pH 7.2, read-out: Minimum Inhibitory Concentration
Source text: as §1

Sarcina lutea ATCC 9341 = assay: MIC, agar dilution method at pH 7.2; assay type: cell-based; conditions: Micrococcus luteus, ATCC9341, read-out: Minimum Inhibitory Concentration
Source text: as §1

Escherichia coli T-5 = assay: MIC, agar dilution method at pH 7.2; assay type: cell-based; conditions: T5, read-out: Minimum Inhibitory Concentration
Source text: as §1

[21] = tested on: Pseudomonas aeruginosa KY 8516; assay: MIC, agar dilution method at pH 7.2; assay type: cell-based; conditions: KY8516, Pseudomonas aeruginosa KY 8516 (probably kanamycin acetyltransferase), read-out: Minimum Inhibitory Concentration
Proteus rettgeri KY 4288 = assay: MIC, agar dilution method at pH 7.2; assay type: cell-based; conditions: Providencia rettgeri, KY4288, pH 7.2, read-out: Minimum Inhibitory Concentration
[22] = Proteus vulgaris 6897, agar dilution, pH 7.2, read-out: Minimum Inhibitory Concentration
[23] = Bacillus subtilis, NO.10707, pH 8, read-out: minimum Inhibitory Concentration
[24] = Staphylococcus aureus, pH 8, read-out: minimum Inhibitory Concentration
[25] = Staphylococus aureus Smith, agar dilution, pH 7.2, read-out: Minimum Inhibitory Concentration
[26] = Bacillus subtilis No. 10707, agar dilution, pH 8.0, read-out: minimum Inhibitory Concentration
[27] = Staphylococcus aureus ATC 6538P, agar dilution, pH 8.0, read-out: minimum Inhibitory Concentration

| Structure (SMILES) | MIC [2] [µg/mL] | MIC [3] [µg/mL] | MIC (Escherichia coli KY 8348 [4]) [µg/mL] | MIC (Escherichia coli KY 8327 [5]) [µg/mL] | MIC [6] [µg/mL] | MIC (Escherichia coli KY 8348 [7]) [µg/mL] | MIC [8] [µg/mL] | MIC [9] [µg/mL] | MIC (Proteus mirabilis 1287) [µg/mL] | MIC [10] [µg/mL] | MIC [11] [µg/mL] | MIC (Escherichia coli KY 8321) [µg/mL] | MIC (Escherichia coli KY 8327 [13]) [µg/mL] | MIC (Providencia sp. 164) [µg/mL] | MIC [14] [µg/mL] | MIC [16] [µg/mL] | MIC [17] [µg/mL] | MIC (Escherichia coli ATC 26) [µg/mL] | MIC [18] [µg/mL] | MIC (Escherichia coli KY 8349) [µg/mL] | also measured |
| --- | --- | --- | --- | --- | --- | --- | --- | --- | --- | --- | --- | --- | --- | --- | --- | --- | --- | --- | --- | --- | --- |
| NC[C@H]1O[C@H](O[C@H]2[C@H](O)[C@@H](O[C@H]3O[C@H](CO)[C@@H](O)[C@H](N)[C@H]3O)[C@H](N)C[C@@H]2N)[C@H](O)[C@@H](O)[C@@H]1O [Kanamycin A, kanamycin A, reference compound] | 0.08 (≈ 0.165 µM) |  |  |  |  |  |  |  |  |  |  |  |  |  |  |  |  |  |  |  | MIC ([1]; pH 7.2, read-out: Minimum Inhibitory Concentration): 0.2 µg/mL (≈ 0.413 µM) |
| CNCC1CCC(N)C(OC2C(N)CC(NC(=O)[C@@H](O)CN)C(OC3OCC(C)(O)C(NC)C3O)C2O)O1 (stereo partly drawn) [L-form] | 0.004 (≈ 0.00726 µM) | 0.008 (≈ 0.0145 µM) | 0.004 (≈ 0.00726 µM) | 0.004 (≈ 0.00726 µM) | 3.12 (≈ 5.67 µM) | 0.2 (≈ 0.363 µM) | 1.56 (≈ 2.83 µM) | 0.2 (≈ 0.363 µM) | 3.12 (≈ 5.67 µM) | 0.05 (≈ 0.0908 µM) | 0.05 (≈ 0.0908 µM) | 0.4 (≈ 0.726 µM) | 0.2 (≈ 0.363 µM) | 6.25 (≈ 11.4 µM) | 0.004 (≈ 0.00726 µM) | 0.78 (≈ 1.42 µM) | 0.033 (≈ 0.0599 µM) | 0.004 (≈ 0.00726 µM) | 1.04 (≈ 1.89 µM) | 0.2 (≈ 0.363 µM) | MIC (Proteus vulgaris 6897; [22]): 1.56 µg/mL (≈ 2.83 µM); MIC [12, 23]: 0.004 µg/mL (≈ 0.00726 µM); MIC [15, 24]: 0.004 µg/mL (≈ 0.00726 µM); MIC [19]: 3.12 µg/mL (≈ 5.67 µM) |
| CNC[C@@H]1CC[C@@H](N)[C@@H](O[C@H]2[C@H](O)[C@@H](O[C@H]3OC[C@](C)(O)[C@H](NC)[C@H]3O)[C@H](N)C[C@@H]2N)O1 [XK-62-2, reference compound] |  |  |  |  |  |  |  |  |  |  |  |  |  |  |  |  |  |  |  |  | MIC [1, 25]: < 0.05 µg/mL; MIC [12, 26]: 0.004 µg/mL (≈ 0.00863 µM); solubility [20]: freely soluble; MIC [15, 27]: 0.008 µg/mL (≈ 0.0173 µM) |
| CNCC1CCC(N)C(OC2C(N)CC(NC(=O)[C@H](O)CN)C(OC3OCC(C)(O)C(NC)C3O)C2O)O1 (stereo partly drawn) [D-form] | 0.004 (≈ 0.00726 µM) | 0.008 (≈ 0.0145 µM) | 0.004 (≈ 0.00726 µM) | 0.004 (≈ 0.00726 µM) | 3.12 (≈ 5.67 µM) | 0.2 (≈ 0.363 µM) | 1.56 (≈ 2.83 µM) | 0.2 (≈ 0.363 µM) | 3.12 (≈ 5.67 µM) | 0.05 (≈ 0.0908 µM) | 0.05 (≈ 0.0908 µM) | 0.2 (≈ 0.363 µM) | 0.2 (≈ 0.363 µM) | 6.25 (≈ 11.4 µM) | 0.004 (≈ 0.00726 µM) | 1.56 (≈ 2.83 µM) | 0.033 (≈ 0.0599 µM) | 0.004 (≈ 0.00726 µM) | 2.08 (≈ 3.78 µM) | 0.2 (≈ 0.363 µM) | MIC (Proteus vulgaris 6897; [22]): 0.78 µg/mL (≈ 1.42 µM); MIC (Escherichia coli T-2): 0.2 µg/mL (≈ 0.363 µM); MIC [12, 23]: 0.004 µg/mL (≈ 0.00726 µM); MIC [15, 24]: 0.004 µg/mL (≈ 0.00726 µM); MIC [19]: 3.12 µg/mL (≈ 5.67 µM) |
| CNCC1CCC(N)C(OC2C(N)CC(NC(=O)C(O)CN)C(OC3OCC(C)(O)C(NC)C3O)C2O)O1 (racemic) [DL-form] | 0.004 (≈ 0.00726 µM) | 0.016 (≈ 0.0291 µM) | 0.004 (≈ 0.00726 µM) | 0.004 (≈ 0.00726 µM) | 3.12 (≈ 5.67 µM) | 0.2 (≈ 0.363 µM) | 1.56 (≈ 2.83 µM) | 0.2 (≈ 0.363 µM) | 3.12 (≈ 5.67 µM) | 0.1 (≈ 0.182 µM) | 0.1 (≈ 0.182 µM) | 0.2 (≈ 0.363 µM) | 0.4 (≈ 0.726 µM) | 12.5 (≈ 22.7 µM) | 0.033 (≈ 0.0599 µM) | 0.78 (≈ 1.42 µM) | 0.033 (≈ 0.0599 µM) | 0.008 (≈ 0.0145 µM) | 1.04 (≈ 1.89 µM) | 0.2 (≈ 0.363 µM) | MIC (Proteus vulgaris 6897; Proteus vulgaris, 6897, pH 7.2, read-out: Minimum Inhibitory Concentration): 3.12 µg/mL (≈ 5.67 µM); MIC [1, 25]: 0.05 µg/mL (≈ 0.0908 µM); MIC (Proteus morganii KY 4298): 0.78 µg/mL (≈ 1.42 µM); MIC (Escherichia coli T-2): 0.4 µg/mL (≈ 0.726 µM); MIC (Sarcina lutea ATCC 9341): 0.4 µg/mL (≈ 0.726 µM); MIC (Escherichia coli T-5): 0.4 µg/mL (≈ 0.726 µM); MIC [12, 26]: 0.008 µg/mL (≈ 0.0145 µM); MIC [21]: 3.12 µg/mL (≈ 5.67 µM); MIC [15, 27]: 0.065 µg/mL (≈ 0.118 µM); MIC (Proteus rettgeri KY 4288): 0.78 µg/mL (≈ 1.42 µM); MIC [19]: 3.12 µg/mL (≈ 5.67 µM) |
